The values that follow come from article PMC10403574, “Discovery of a pyrrole-pyridinimidazole derivative as novel SIRT6 inhibitor for sensitizing pancreatic cancer to gemcitabine” (Cell Death & Disease, 2023).

Structures are written as SMILES.

Experiment [1] concerns H3K9 acetylation (SIRT6 substrate). Kind of experiment: H3K9 acetylation in Hela cells, western blot. The format is cell-based. The protocol: Cells were harvested and lysed in a lysis buffer (solarbio, R0010) supplementing 1 mM PMSF and protease inhibitor (TargetMol, USA). […] Then, the membranes were detected by Tanon 5200 (Tanon, Beijing, China).
To investigate the SIRT6 activity at cellular levels, we examined the acetylation status of H3K9, which is a well-known SIRT6 substrate. […] As these compounds can show violet fluorescence, intracellular localizations of these compounds were evaluated by confocal microscopy.
(A western blot detects proteins with antibodies after separation by electrophoresis.)

The next experiment concerns the target HDAC5 (Homo sapiens, UniProt Q9UQL6). Kind of experiment: Deacetylation activity selectivity, HDAC5. The format is biochemical. From the text:
(§1) Based on the above results, 8a was further investigated in this study. […] To further evaluate the selectivity of 8a for SIRT6, we examined the effect of 8a on the deacetylation activity of other HDAC family members, including HDAC1-HDAC11, SIRT1-SIRT3 and SIRT5. […] Furthermore, to confirm binding of 8a to SIRT6 in cells, we carried out the cellular thermal shift assay (CETSA). The CETSA approach builds on the thermal shift assay concept where ligand binding to its target protein enhances the target protein stability. We observed that the thermal stability of SIRT6 increased after 8a treatment (Figs. 2c, d).

In the next experiment the target is HDAC7 (Homo sapiens, UniProt Q8WUI4). Kind of experiment: Deacetylation activity selectivity, HDAC7. The format is biochemical.
Sequence of HDAC7 (Q8WUI4 whole entry): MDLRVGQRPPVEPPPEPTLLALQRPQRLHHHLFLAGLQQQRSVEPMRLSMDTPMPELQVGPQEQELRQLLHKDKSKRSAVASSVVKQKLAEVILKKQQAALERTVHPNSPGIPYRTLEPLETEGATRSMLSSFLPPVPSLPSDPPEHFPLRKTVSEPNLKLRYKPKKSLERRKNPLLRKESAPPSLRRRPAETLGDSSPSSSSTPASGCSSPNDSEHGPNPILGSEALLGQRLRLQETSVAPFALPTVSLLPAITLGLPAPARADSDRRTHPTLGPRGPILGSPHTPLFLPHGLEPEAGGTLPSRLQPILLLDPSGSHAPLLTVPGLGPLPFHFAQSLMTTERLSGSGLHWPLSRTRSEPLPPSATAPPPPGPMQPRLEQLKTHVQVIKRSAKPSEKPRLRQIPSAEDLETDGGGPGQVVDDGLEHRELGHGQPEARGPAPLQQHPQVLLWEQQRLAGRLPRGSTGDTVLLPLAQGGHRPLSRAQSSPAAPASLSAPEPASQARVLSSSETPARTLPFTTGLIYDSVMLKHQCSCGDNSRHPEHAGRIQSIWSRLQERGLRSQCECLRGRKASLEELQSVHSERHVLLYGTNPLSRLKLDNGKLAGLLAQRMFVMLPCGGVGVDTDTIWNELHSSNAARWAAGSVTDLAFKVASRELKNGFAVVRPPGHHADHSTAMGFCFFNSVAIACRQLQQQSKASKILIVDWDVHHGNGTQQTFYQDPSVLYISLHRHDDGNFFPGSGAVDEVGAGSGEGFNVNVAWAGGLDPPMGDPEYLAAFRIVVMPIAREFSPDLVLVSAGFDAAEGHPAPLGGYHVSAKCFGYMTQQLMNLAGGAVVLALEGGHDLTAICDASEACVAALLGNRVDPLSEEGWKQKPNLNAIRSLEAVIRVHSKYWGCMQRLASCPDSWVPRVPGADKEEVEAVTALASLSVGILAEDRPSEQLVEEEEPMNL
From the text: as §1

Another experiment concerns the target SIRT2 (Homo sapiens, UniProt Q8IXJ6). The experiment can be described thus: Deacetylation activity selectivity, SIRT2. It counts as biochemical. The procedure: (§2) Fluor-De-Lys (FDL) assays were used for the examination of the deacetylation activities of sirtuins as described previously. For the detection of SIRT6 activity, the 50-μL reaction mixture contained 5 μM SIRT6, 2.5 mM NAD^+ (β-Nicotinamide adenine dinucleotide hydrate, Sigma, N1636), 75 μM RHKK-Ac-AMC (GL Biochem, Shanghai), compounds/DMSO, and assay buffer. The reactions were incubated at 37 °C for 2 h, added 50 μL stop solution (40 mM nicotinamide, 6 mg/mL trypsin) at 25 °C for 30 min. Fluorescence intensity was measured at an excitation wavelength of 360 nm and an emission wavelength of 460 nm. IC50 values were calculated in GraphPad Prism version 8.00.
as §1

The target of another experiment is HDAC9 (Homo sapiens, UniProt Q9UKV0). The experiment can be described thus: Deacetylation activity selectivity, HDAC9. The format is biochemical.
Sequence of HDAC9 (Q9UKV0 whole entry, species assumed): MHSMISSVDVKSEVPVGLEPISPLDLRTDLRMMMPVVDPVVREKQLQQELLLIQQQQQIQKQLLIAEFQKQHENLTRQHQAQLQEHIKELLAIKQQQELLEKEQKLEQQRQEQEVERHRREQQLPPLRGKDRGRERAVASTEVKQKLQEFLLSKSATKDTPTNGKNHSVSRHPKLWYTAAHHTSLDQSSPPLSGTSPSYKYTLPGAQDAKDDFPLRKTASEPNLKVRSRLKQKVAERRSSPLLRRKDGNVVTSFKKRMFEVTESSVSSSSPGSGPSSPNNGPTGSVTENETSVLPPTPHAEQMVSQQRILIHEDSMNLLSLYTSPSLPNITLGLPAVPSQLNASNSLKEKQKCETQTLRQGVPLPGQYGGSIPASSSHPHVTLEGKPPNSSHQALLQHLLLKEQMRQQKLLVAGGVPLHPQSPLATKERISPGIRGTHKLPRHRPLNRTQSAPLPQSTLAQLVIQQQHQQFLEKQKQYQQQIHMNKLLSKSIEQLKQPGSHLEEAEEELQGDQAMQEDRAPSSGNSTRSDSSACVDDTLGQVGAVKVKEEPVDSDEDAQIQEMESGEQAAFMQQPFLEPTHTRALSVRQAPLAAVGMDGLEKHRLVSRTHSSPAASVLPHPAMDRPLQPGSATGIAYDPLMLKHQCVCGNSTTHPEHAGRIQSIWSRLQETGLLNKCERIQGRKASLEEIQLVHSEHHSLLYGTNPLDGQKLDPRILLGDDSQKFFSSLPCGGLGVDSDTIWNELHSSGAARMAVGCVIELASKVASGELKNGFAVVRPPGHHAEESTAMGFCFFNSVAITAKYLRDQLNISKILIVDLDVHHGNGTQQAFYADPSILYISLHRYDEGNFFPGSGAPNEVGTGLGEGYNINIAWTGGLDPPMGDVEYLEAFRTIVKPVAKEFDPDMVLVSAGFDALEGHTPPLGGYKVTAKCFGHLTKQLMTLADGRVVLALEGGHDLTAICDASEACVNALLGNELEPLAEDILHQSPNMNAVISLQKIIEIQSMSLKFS
From the text: as §1

Another experiment addresses SIRT6 (Homo sapiens, UniProt Q8N6T7). Kind of experiment: Fluor-De-Lys (FDL) SIRT6 deacetylation assay. The format is biochemical. The arrangement: The human full-length SIRT6 gene was inserted into the prokaryotic expression vector (pET-28a (+)); inferred from the pET-28a(+) vector, Ni-NTA purification and Ni-NTA biosensor loading); made in house; host or cells: Escherichia coli BL21 (DE3).

In experiment [2] the test system is BXPC-3 cells. Kind of experiment: MTT proliferation assay, BXPC-3. The format is cell-based. To be noted: 72 h. The protocol:
BXPC-3 and PANC-1 cells were plated in 96-well plates at 5000 cells per well. After 12 h attachment, varying concentrations of 8a were added into the culture medium for 72 h. Then 10 μL MTT (5 mg/ml) solution was added into per well for 4 h at 37 °C. After removing medium, formazan crystals were dissolved in 150 µL DMSO. The cells viability was quantified by measuring the absorbance at 570 nm.

The next experiment addresses SIRT3 (Homo sapiens, UniProt Q9NTG7). The experiment can be described thus: Deacetylation activity selectivity, SIRT3. The format is biochemical. The protocol: as §2, §1
Experiment [3] deals with BXPC-3 cells. The experiment can be described thus: Colony formation assay. It counts as cell-based. Particulars: dose-dependent. The protocol:
The BXPC-3 cells were plated in six-well plates at 1000 cells per well. After 12 h, different concentrations of 8a, Gemcitabine or their combination were added for 7–10 days. The cells were fixed for 15 min with paraformaldehyde (4%) and then stained with crystal violet (0.1%) for 15 min at room temperature. Surviving colonies consisting of 50 or more cells were counted under microscope.

Where [4] appears, read: Lineweaver–Burk plot, RHKK-Ac-AMC and NAD+ substrates.

Sequence of SIRT6 (Q8N6T7 whole entry): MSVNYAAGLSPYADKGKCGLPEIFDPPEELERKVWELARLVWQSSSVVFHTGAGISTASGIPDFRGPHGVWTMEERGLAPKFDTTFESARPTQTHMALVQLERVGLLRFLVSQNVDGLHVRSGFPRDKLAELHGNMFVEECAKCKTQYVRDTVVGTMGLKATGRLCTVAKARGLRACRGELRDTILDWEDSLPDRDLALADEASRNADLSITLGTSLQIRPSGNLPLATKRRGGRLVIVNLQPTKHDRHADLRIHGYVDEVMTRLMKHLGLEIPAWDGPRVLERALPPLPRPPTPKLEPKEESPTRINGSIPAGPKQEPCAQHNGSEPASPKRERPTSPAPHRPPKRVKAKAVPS
Sequence of HDAC5 (Q9UQL6 whole entry, species assumed): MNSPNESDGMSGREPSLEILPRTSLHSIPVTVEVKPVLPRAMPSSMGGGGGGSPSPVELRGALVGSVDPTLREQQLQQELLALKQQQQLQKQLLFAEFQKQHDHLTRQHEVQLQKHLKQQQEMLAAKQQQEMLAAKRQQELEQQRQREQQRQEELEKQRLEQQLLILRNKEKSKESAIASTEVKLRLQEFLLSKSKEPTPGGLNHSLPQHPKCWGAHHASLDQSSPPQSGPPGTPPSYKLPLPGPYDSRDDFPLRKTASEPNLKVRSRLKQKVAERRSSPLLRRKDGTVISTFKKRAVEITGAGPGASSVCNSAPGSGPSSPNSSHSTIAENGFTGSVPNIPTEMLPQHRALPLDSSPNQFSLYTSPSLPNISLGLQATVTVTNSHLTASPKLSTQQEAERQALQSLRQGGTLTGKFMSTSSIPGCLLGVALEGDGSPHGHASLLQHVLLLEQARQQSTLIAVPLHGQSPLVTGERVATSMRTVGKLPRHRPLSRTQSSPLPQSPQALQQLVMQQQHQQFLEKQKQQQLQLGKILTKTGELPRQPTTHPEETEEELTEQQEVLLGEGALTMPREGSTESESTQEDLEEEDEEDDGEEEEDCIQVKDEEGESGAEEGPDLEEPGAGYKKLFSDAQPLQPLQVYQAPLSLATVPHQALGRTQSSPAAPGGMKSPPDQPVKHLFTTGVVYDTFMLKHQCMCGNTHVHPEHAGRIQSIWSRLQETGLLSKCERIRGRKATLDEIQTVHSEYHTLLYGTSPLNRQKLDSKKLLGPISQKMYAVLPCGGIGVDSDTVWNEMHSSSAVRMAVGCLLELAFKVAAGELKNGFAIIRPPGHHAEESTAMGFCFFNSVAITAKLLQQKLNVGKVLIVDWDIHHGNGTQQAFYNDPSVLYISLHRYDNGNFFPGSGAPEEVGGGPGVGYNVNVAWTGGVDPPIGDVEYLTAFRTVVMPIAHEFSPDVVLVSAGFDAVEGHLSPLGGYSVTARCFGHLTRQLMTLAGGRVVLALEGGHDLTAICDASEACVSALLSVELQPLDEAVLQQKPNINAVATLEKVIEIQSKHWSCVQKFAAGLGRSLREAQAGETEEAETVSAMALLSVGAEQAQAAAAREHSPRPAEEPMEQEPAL
Sequence of SIRT3 (Q9NTG7 whole entry, species assumed): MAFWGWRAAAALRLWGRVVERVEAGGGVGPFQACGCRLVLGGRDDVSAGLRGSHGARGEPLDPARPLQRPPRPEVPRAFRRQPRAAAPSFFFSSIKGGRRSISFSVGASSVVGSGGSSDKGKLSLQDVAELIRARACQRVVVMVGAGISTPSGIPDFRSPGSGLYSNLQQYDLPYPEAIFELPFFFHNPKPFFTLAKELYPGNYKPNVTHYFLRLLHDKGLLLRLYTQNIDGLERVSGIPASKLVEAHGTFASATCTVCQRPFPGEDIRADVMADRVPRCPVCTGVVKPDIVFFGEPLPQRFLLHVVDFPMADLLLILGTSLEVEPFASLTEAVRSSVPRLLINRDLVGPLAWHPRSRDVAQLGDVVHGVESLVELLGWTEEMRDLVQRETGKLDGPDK
Sequence of SIRT2 (Q8IXJ6 whole entry, species assumed): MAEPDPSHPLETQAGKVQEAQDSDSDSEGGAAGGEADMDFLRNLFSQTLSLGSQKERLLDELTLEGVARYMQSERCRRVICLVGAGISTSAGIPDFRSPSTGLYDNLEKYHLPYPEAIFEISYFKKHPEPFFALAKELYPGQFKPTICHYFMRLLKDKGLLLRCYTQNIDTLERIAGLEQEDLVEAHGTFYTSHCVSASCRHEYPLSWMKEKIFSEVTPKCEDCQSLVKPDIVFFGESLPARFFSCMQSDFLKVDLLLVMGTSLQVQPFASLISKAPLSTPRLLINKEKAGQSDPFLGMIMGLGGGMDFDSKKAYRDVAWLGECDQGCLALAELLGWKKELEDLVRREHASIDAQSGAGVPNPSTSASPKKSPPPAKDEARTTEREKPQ

On to `Br.CN(C)C(SCCCCCCn1cnc2c(-c3cc(Br)c(Br)[nH]3)nccc21)=[N+](C)C.[Cl-]` [Compound 8a], for which, in [1], the “acetylation levels of H3K9” value was “significantly increased”. Moreover, the IC50 – broadly, the point on the concentration scale where inhibition reaches its midpoint – was > 200 µM against HDAC5; > 200 µM against HDAC7; 92.2 ± 1.95 µM on SIRT2; > 200 µM against HDAC9; 7.56 µM in the experiment on BXPC-3 cells [2]; > 200 µM against SIRT3. For the same compound, on SIRT6 (setting [4]), the Km result is “did not alter”. Further, the Vmax result at SIRT6 (setting [4]) was “obviously decreased”. For the same compound, on SIRT6 (competition and enzymatic kinetic assays), the inhibition mode result is “non-competitive inhibitor”. In addition, the colony formation entry with BXPC-3 cells [3] was “much smaller and fewer colonies”.
